{"source": "patent US12077503B2", "about": "“Substituted cyclic amides and their use as herbicides” (FMC CORPORATION, priority 2015, dated 2024)", "type_in_all_cases": "in vivo", "key": {"[1]": {"test_system": "barnyardgrass (Echinochloa crus-galli)", "test": "Test B flooded paddy test", "settings": "Echinochloa crus-galli, 360 h, Flood, 250 g ai/ha; visually evaluated after 13 to 15 d; read-out: Plant response rating, Barnyardgrass (0 to 100 scale where 0 is no effect and 100 is complete control)", "in_short": "(§1)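 Percent control, visually estimated after 13–15 d in the greenhouse on a 0–100 basis, compares treated pots with untreated ones; compound was put into paddy water 3 cm above the soil when plants had two leaves.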"}, "[2]": {"test_system": "sedge, umbrella (small-flower umbrella sedge, Cyperus difformis)", "test": "Test B flooded paddy test", "settings": "Cyperus difformis, 360 h, Flood, 250 g ai/ha; visually evaluated after 13 to 15 d; read-out: Plant response rating, Sedge, Umbrella (0 to 100 scale where 0 is no effect and 100 is complete control)", "in_short": "as §1"}, "rice (Oryra sativa)": {"test_system": "rice (Oryra sativa)", "test": "Test B flooded paddy test", "settings": "Oryza sativa, 360 h, Flood, 250 g ai/ha; visually evaluated after 13 to 15 d; read-out: Plant response rating, Rice (0 to 100 scale where 0 is no effect and 100 is complete control)", "in_short": "as §1"}, "[3]": {"test_system": "ducksalad (Heteranthera limosa)", "test": "Test B flooded paddy test", "settings": "Heteranthera limosa, 360 h, Flood, 250 g ai/ha; visually evaluated after 13 to 15 d; read-out: Plant response rating, Ducksalad (0 to 100 scale where 0 is no effect and 100 is complete control)", "in_short": "as §1"}, "[4]": {"test_system": "barnyardgrass (Echinochloa crus-galli)", "test": "Test A postemergence", "settings": "Echinochloa crus-galli, post-emergence, 240 h, Postemergence", "in_short": "(§2)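 Treatment is preemergence as a directed soil spray after planting, or postemergence at the one- to two-leaf stage, with test chemical in a non-phytotoxic solvent mixture plus surfactant. Plants stay in the greenhouse about 10 d before visual injury scoring on a 0 to 100 scale versus untreated controls.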"}, "[5]": {"test_system": "ragweed (common ragweed, Ambrosia elatior)", "test": "Test A postemergence", "settings": "Ambrosia artemisiifolia, post-emergence, 240 h, Postemergence", "in_short": "as §2"}, "Kochia (Kochia scoparia) [6]": {"test_system": "Kochia (Kochia scoparia)", "test": "Test A postemergence", "settings": "Bassia scoparia, post-emergence, 240 h, Postemergence", "in_short": "as §2"}, "[7]": {"test_system": "ryegrass, Italian (Italian ryegrass, Lolium multiflorum)", "test": "Test A postemergence", "settings": "Lolium multiflorum, post-emergence, 240 h, Postemergence", "in_short": "as §2"}, "[8]": {"test_system": "blackgrass (Alopecurus myosuroides)", "test": "Test A postemergence", "settings": "Alopecurus myosuroides, post-emergence, 240 h, Postemergence", "in_short": "as §2"}, "[9]": {"test_system": "giant foxtail (Setaria faberii)", "test": "Test A postemergence", "settings": "Setaria faberi, post-emergence, 240 h, Postemergence", "in_short": "as §2"}, "[10]": {"test_system": "wheat (Triticum aestivum)", "test": "Test A postemergence", "settings": "Triticum aestivum, post-emergence, 240 h, Postemergence", "in_short": "as §2"}, "[11]": {"test_system": "Galium (catchweed bedstraw, Galium aparine)", "test": "Test A postemergence", "settings": "Galium, post-emergence, 240 h, Postemergence", "in_short": "as §2"}, "[12]": {"test_system": "pigweed (Amaranthus retroflexus)", "test": "Test A postemergence", "settings": "Amaranthus retroflexus, post-emergence, 240 h, Postemergence", "in_short": "as §2"}, "corn (Zea mays)": {"test_system": "corn (Zea mays)", "test": "Test A postemergence", "settings": "Zea mays, post-emergence, 240 h, Postemergence", "in_short": "as §2"}, "[13]": {"test_system": "barnyardgrass (Echinochloa crus-galli)", "test": "Test A preemergence", "settings": "Echinochloa crus-galli, pre-emergence, 240 h, Preemergence", "in_short": "as §2"}, "[14]": {"test_system": "ragweed (common ragweed, Ambrosia elatior)", "test": "Test A preemergence", "settings": "Ambrosia artemisiifolia, pre-emergence, 240 h, Preemergence", "in_short": "as §2"}, "Kochia (Kochia scoparia) [15]": {"test_system": "Kochia (Kochia scoparia)", "test": "Test A preemergence", "settings": "Bassia scoparia, pre-emergence, 240 h, Preemergence", "in_short": "as §2"}, "[16]": {"test_system": "ryegrass, Italian (Italian ryegrass, Lolium multiflorum)", "test": "Test A preemergence", "settings": "Lolium multiflorum, pre-emergence, 240 h, Preemergence", "in_short": "as §2"}, "[17]": {"test_system": "giant foxtail (Setaria faberii)", "test": "Test A preemergence", "settings": "Setaria faberi, pre-emergence, 240 h, Preemergence", "in_short": "as §2"}, "[18]": {"test_system": "pigweed (Amaranthus retroflexus)", "test": "Test A preemergence", "settings": "Amaranthus retroflexus, pre-emergence, 240 h, Preemergence"}}, "data": [{"compound": "Cc1ccc([C@H]2CN(C)C(=O)[C@@H]2C(=O)Nc2ccc(F)nc2F)cc1", "note": "[Compound 1402]", "values": [{"measurement": "pest or weed control at 250 g/ha", "setting": "[1]", "result": 90, "unit": "%"}, {"measurement": "pest or weed control at 250 g/ha", "setting": "[2]", "result": 0, "unit": "%"}, {"measurement": "pest or weed control at 250 g/ha", "setting": "rice (Oryra sativa)", "result": 0, "unit": "%"}, {"measurement": "pest or weed control at 250 g/ha", "setting": "[3]", "result": 95, "unit": "%"}, {"measurement": "pest or weed control at 31 g/ha", "setting": "[4]; 31 g ai/ha, 0 is no effect, 100 is complete control, read-out: Barnyardgrass plant response rating (0 to 100 scale)", "result": 80, "unit": "%"}, {"measurement": "pest or weed control at 125 g/ha", "setting": "[4]; 125 g ai/ha, visual injury after approx. 10 d, 0 to 100 scale, 0 no effect, 100 complete control, read-out: Plant response rating, Barnyardgrass", "result": 90, "unit": "%"}, {"measurement": "pest or weed control at 31 g/ha", "setting": "[5]; 31 g ai/ha, 0 is no effect, 100 is complete control, read-out: Ragweed plant response rating (0 to 100 scale)", "result": 0, "unit": "%"}, {"measurement": "pest or weed control at 125 g/ha", "setting": "[5]; 125 g ai/ha, visual injury after approx. 10 d, 0 to 100 scale, 0 no effect, 100 complete control, read-out: Plant response rating, Ragweed", "result": 20, "unit": "%"}, {"measurement": "pest or weed control at 31 g/ha", "setting": "Kochia (Kochia scoparia) [6]; 31 g ai/ha, 0 is no effect, 100 is complete control, read-out: Kochia plant response rating (0 to 100 scale)", "result": 30, "unit": "%"}, {"measurement": "pest or weed control at 125 g/ha", "setting": "Kochia (Kochia scoparia) [6]; 125 g ai/ha, visual injury after approx. 10 d, 0 to 100 scale, 0 no effect, 100 complete control, read-out: Plant response rating, Kochia", "result": 70, "unit": "%"}, {"measurement": "pest or weed control at 31 g/ha", "setting": "[7]; 31 g ai/ha, 0 is no effect, 100 is complete control, read-out: Ryegrass, Italian plant response rating (0 to 100 scale)", "result": 0, "unit": "%"}, {"measurement": "pest or weed control at 125 g/ha", "setting": "[7]; 125 g ai/ha, visual injury after approx. 10 d, 0 to 100 scale, 0 no effect, 100 complete control, read-out: Plant response rating, Ryegrass, Italian", "result": 0, "unit": "%"}, {"measurement": "pest or weed control at 31 g/ha", "setting": "[8]; 31 g ai/ha, 0 is no effect, 100 is complete control, read-out: Blackgrass plant response rating (0 to 100 scale)", "result": 0, "unit": "%"}, {"measurement": "pest or weed control at 125 g/ha", "setting": "[8]; 125 g ai/ha, visual injury after approx. 10 d, 0 to 100 scale, 0 no effect, 100 complete control, read-out: Plant response rating, Blackgrass", "result": 50, "unit": "%"}, {"measurement": "pest or weed control at 31 g/ha", "setting": "[9]; 31 g ai/ha, 0 is no effect, 100 is complete control, read-out: Foxtail, Giant plant response rating (0 to 100 scale)", "result": 50, "unit": "%"}, {"measurement": "pest or weed control at 125 g/ha", "setting": "[9]; 125 g ai/ha, visual injury after approx. 10 d, 0 to 100 scale, 0 no effect, 100 complete control, read-out: Plant response rating, Foxtail, Giant", "result": 90, "unit": "%"}, {"measurement": "plant injury at 31 g/ha", "setting": "[10]; 31 g ai/ha, 0 is no effect, 100 is complete control, read-out: Wheat plant response rating (0 to 100 scale)", "result": 20, "unit": "%"}, {"measurement": "plant injury at 125 g/ha", "setting": "[10]; 125 g ai/ha, visual injury after approx. 10 d, 0 to 100 scale, 0 no effect, 100 complete control, read-out: Plant response rating, Wheat", "result": 40, "unit": "%"}, {"measurement": "pest or weed control at 31 g/ha", "setting": "[11]; 31 g ai/ha, 0 is no effect, 100 is complete control, read-out: Galium plant response rating (0 to 100 scale)", "result": 60, "unit": "%"}, {"measurement": "pest or weed control at 125 g/ha", "setting": "[11]; 125 g ai/ha, visual injury after approx. 10 d, 0 to 100 scale, 0 no effect, 100 complete control, read-out: Plant response rating, Galium", "result": 70, "unit": "%"}, {"measurement": "pest or weed control at 31 g/ha", "setting": "[12]; 31 g ai/ha, 0 is no effect, 100 is complete control, read-out: Pigweed plant response rating (0 to 100 scale)", "result": 0, "unit": "%"}, {"measurement": "pest or weed control at 125 g/ha", "setting": "[12]; 125 g ai/ha, visual injury after approx. 10 d, 0 to 100 scale, 0 no effect, 100 complete control, read-out: Plant response rating, Pigweed", "result": 0, "unit": "%"}, {"measurement": "plant injury at 31 g/ha", "setting": "corn (Zea mays); 31 g ai/ha, 0 is no effect, 100 is complete control, read-out: Corn plant response rating (0 to 100 scale)", "result": 0, "unit": "%"}, {"measurement": "Corn plant response rating (crop injury, 0 = no effect, 100 = complete kill) at 125 g/ha", "setting": "corn (Zea mays); 125 g ai/ha, visual injury after approx. 10 d, 0 to 100 scale, 0 no effect, 100 complete control", "result": 0, "unit": "%"}, {"measurement": "pest or weed control at 31 g/ha", "setting": "[13]; 31 g ai/ha, 0 to 100 scale where 0 is no effect and 100 is complete control, read-out: Barnyardgrass plant response rating", "result": 100, "unit": "%"}, {"measurement": "pest or weed control at 125 g/ha", "setting": "[13]; 125 g ai/ha, 0 to 100 scale (0 no effect, 100 complete control), read-out: Plant response rating, Barnyardgrass", "result": 90, "unit": "%"}, {"measurement": "pest or weed control at 31 g/ha", "setting": "[14]; 31 g ai/ha, 0 to 100 scale where 0 is no effect and 100 is complete control, read-out: Ragweed plant response rating", "result": 30, "unit": "%"}, {"measurement": "pest or weed control at 125 g/ha", "setting": "[14]; 125 g ai/ha, 0 to 100 scale (0 no effect, 100 complete control), read-out: Plant response rating, Ragweed", "result": 0, "unit": "%"}, {"measurement": "pest or weed control at 31 g/ha", "setting": "Kochia (Kochia scoparia) [15]; 31 g ai/ha, 0 to 100 scale where 0 is no effect and 100 is complete control, read-out: Kochia plant response rating", "result": 20, "unit": "%"}, {"measurement": "pest or weed control at 125 g/ha", "setting": "Kochia (Kochia scoparia) [15]; 125 g ai/ha, 0 to 100 scale (0 no effect, 100 complete control), read-out: Plant response rating, Kochia", "result": 80, "unit": "%"}, {"measurement": "pest or weed control at 31 g/ha", "setting": "[16]; 31 g ai/ha, 0 to 100 scale where 0 is no effect and 100 is complete control, read-out: Ryegrass, Italian plant response rating", "result": 0, "unit": "%"}, {"measurement": "pest or weed control at 125 g/ha", "setting": "[16]; 125 g ai/ha, 0 to 100 scale (0 no effect, 100 complete control), read-out: Plant response rating, Ryegrass, Italian", "result": 0, "unit": "%"}, {"measurement": "pest or weed control at 31 g/ha", "setting": "[17]; 31 g ai/ha, 0 to 100 scale where 0 is no effect and 100 is complete control, read-out: Foxtail, Giant plant response rating", "result": 100, "unit": "%"}, {"measurement": "pest or weed control at 125 g/ha", "setting": "[17]; 125 g ai/ha, 0 to 100 scale (0 no effect, 100 complete control), read-out: Plant response rating, Foxtail, Giant", "result": 100, "unit": "%"}, {"measurement": "pest or weed control at 31 g/ha", "setting": "[18]; 31 g ai/ha, 0 to 100 scale where 0 is no effect and 100 is complete control, read-out: Pigweed plant response rating", "result": 20, "unit": "%"}, {"measurement": "pest or weed control at 125 g/ha", "setting": "[18]; 125 g ai/ha, 0 to 100 scale (0 no effect, 100 complete control), read-out: Plant response rating, Pigweed", "result": 90, "unit": "%"}]}]}
